The text below walks through data of patent US6346273B1, “Process for solubilizing pharmaceutically active ingredients in water and in aqueous vehicles” (Farmigea S.p.A., priority 1997, dated 2002).

The conditions of data set [1]: co-precipitated with PVP having M.W.=50,000; cited from earlier work.
The nature of data set [2]: Amounts of drugs solubilized at 20° C. in water, with PVP, with PEG-GTR and with the method of the invention. Format: physicochemical. The source says: In this table, the solubility of each drug in water is compared with the solubility obtainable with the complexation method (with PVP) and with the solubility obtainable with the micellar solubilization method with surfactants (with PEG-GTR). In all cases it is evident that the combined method according to the invention affords solubility increases that are largely greater than the sum of the increases obtainable with each one of the prior art methods.

[3] abbreviates: PVP (M.W. = 10,000) 18.0 % w/w in water.

Regarding `O=C1NC(=O)C(c2ccccc2)(c2ccccc2)N1` [phenytoin], the solutions stability result in data set [1] is “maximum of two years”.
Turning to `CC(=O)OCC(=O)[C@@]12OC(C)(C)O[C@@H]1C[C@H]1[C@@H]3CC(C=O)=C4C=C(OCCCl)CC[C@]4(C)[C@@]3(F)[C@@H](O)C[C@@]12C` [Formocortal], the “Amt. of drug solubilized at 20° C. (% w/w)” value in data set [2] (PEG-GTR 5.0 % w/w in water) is on record as 0.0252 % w/w; in data set [2] (setting [3]), 0.0022 % w/w; in data set [2] (PVP (M.W. = 10,000) + PEG-GTR (18.0 + 5.0 % w/w), method of the invention), 0.10 % w/w; in data set [2] (water, solubilizing agent none), 0.008 % w/w.
For `C=C[C@@]1(C)CC(=O)[C@]2(O)[C@@]3(C)[C@@H](O)CCC(C)(C)[C@@H]3[C@H](O)[C@H](OC(C)=O)[C@@]2(C)O1` [Forskolin], the “Amt. of drug solubilized at 20° C. (% w/w)” value in data set [2] (PEG-GTR 10.0 % w/w in water) was determined as 0.05 % w/w; in data set [2] (PVP (M.W. = 10,000) 30.0 % w/w in water) it was 0.03 % w/w; in data set [2] (PVP (M.W. = 10,000) + PEG-GTR (30.0 + 10.0 % w/w), method of the invention), 0.20 % w/w; in data set [2] (water, solubilizing agent none), 0.0029 % w/w.
In the case of `C[C@@H]1O[C@@H](OC[C@H]2O[C@@H](Oc3c(-c4ccc(O)c(O)c4)oc4cc(O)cc(O)c4c3=O)[C@H](O)[C@@H](O)[C@@H]2O)[C@H](O)[C@H](O)[C@H]1O` [Rutin], the “Amt. of drug solubilized at 20° C. (% w/w)” value in data set [2] (PEG-GTR 10.0 % w/w in water) turned out to be 0.074 % w/w; in data set [2] (PVP (M.W. = 2000-3000) 30.0 % w/w in water), 0.37 % w/w; in data set [2] (PVP (M.W. = 2000-3000) + PEG-GTR (30.0 + 10.0 % w/w), method of the invention), 1.0 % w/w; in data set [2] (water, solubilizing agent none) it was 0.0125 % w/w.
As for `CN1CCN(c2c(F)cc3c(=O)c(C(=O)O)cn4c3c2SCC4)CC1` [Rufloxacin], the “Amt. of drug solubilized at 20° C. (% w/w)” value in data set [2] (PEG-GTR 1.0 % w/w in water) is 0.03 % w/w; in data set [2] (PVP (M.W. = 44,000-54,000) 15.0 % w/w in water), 0.24 % w/w; in data set [2] (PVP (M.W. = 44,000-54,000) + PEG-GTR (15.0 + 1.0 % w/w), method of the invention), 0.30 % w/w; in data set [2] (water, solubilizing agent none) it was 0.029 % w/w.
Consider `COc1ccc2c(C(=S)N(C)CC(=O)O)cccc2c1C(F)(F)F` [Tolrestat], for which the “Amt. of drug solubilized at 20° C. (% w/w)” value came out at 0.60 % w/w in data set [2] (PEG-GTR 6.0 % w/w in water); 0.80 % w/w in data set [2] (PEG-GTR 8.0 % w/w in water); 1.20 % w/w in data set [2] (PEG-GTR 10.0 % w/w in water); 2.0 % w/w in data set [2] (PVP (M.W. 10,000) + PEG-GTR (18.0 + 8.0 % w/w), method of the invention); 0.05 % w/w in data set [2] (setting [3]); 1.50 % w/w in data set [2] (PVP (M.W. = 10,000) + PEG-GTR (18.0 + 6.0 % w/w), method of the invention). For the same compound, the “Amt. of drug solubilized at 20° C. (% w/w)” value in data set [2] (PVP (M.W. = 10,000) + PEG-GTR (18.0 + 10.0 % w/w), method of the invention) was 3.0 % w/w; in data set [2] (water, solubilizing agent none) it was 0.00075 % w/w. Further, the solubility in water in data set [2] (at 20° C.) was 0.75 mg/100 g of water. For the same compound, the “solubility when treated with complexation with PVP” value in data set [2] (complexation with PVP) is 0.05 % (w/w). Further, in data set [2] (optimized choice of surfactant and amounts), the “solubility by means of surface-active agents” value was ~1.2 % (w/w). Besides, in data set [2] (water, no solubilization technique), the original solubility is 0.00075 % (w/w).
As for `CN1C(C(=O)Nc2ccccn2)=C(O)c2ccccc2S1(=O)=O` [Piroxicam], the “Amt. of drug solubilized at 20° C. (% w/w)” value in data set [2] (PEG-GTR 2.5 % w/w in water) came to 0.13 % w/w; in data set [2] (PVP (M.W. = 10,000) 20.0 % w/w in water) it was 0.081 % w/w; in data set [2] (PVP (M.W. = 10,000) + PEG-GTR (20.0 + 2.5 % w/w), method of the invention), 0.50 % w/w; in data set [2] (water, solubilizing agent none) it was 0.0017 % w/w.
